Laboratory results published in US4751235A, “Anti-atherosclerotic indolizine derivatives” (Sandoz Pharm. Corp., priority 1986, dated 1988).
Structures can show the parent of a compound that is named as a salt.

Key:
[1] = system: 3 β-hydroxysterol synthesis; assay: Test B. In Vivo Cholesterol Biosynthesis Inhibition Test; details: Rattus norvegicus, rats, oral administration, read-out: ED50 (dose producing 50% inhibition of 3 β-hydroxysterol synthesis)
Protocol: Test B. In Vivo Cholesterol Biosynthesis Inhibition Test: This test is also known and is carried out as described on pages 60-61 of said application Ser. No. 06/741,903 and on page 33 of World (PCT) Published Patent Application No. 84/02131, both of which are hereby incorporated by reference as if set forth herein in their entirety.

HMG-CoA reductase = molecular target: T1, HMG-CoA reductase (Rattus norvegicus, UniProt P51639); assay: Test A. In Vitro Microsomal Assay of HMG-CoA Reductase Inhibition; format: biochemical; details: read-out: IC50 (concentration producing 50% inhibition of HMG-CoA reductase activity)
T1 construct: from tissue; host or cells: microsomes (printed); rat liver by own knowledge of the cited method
T1 sequence (P51639 1-887): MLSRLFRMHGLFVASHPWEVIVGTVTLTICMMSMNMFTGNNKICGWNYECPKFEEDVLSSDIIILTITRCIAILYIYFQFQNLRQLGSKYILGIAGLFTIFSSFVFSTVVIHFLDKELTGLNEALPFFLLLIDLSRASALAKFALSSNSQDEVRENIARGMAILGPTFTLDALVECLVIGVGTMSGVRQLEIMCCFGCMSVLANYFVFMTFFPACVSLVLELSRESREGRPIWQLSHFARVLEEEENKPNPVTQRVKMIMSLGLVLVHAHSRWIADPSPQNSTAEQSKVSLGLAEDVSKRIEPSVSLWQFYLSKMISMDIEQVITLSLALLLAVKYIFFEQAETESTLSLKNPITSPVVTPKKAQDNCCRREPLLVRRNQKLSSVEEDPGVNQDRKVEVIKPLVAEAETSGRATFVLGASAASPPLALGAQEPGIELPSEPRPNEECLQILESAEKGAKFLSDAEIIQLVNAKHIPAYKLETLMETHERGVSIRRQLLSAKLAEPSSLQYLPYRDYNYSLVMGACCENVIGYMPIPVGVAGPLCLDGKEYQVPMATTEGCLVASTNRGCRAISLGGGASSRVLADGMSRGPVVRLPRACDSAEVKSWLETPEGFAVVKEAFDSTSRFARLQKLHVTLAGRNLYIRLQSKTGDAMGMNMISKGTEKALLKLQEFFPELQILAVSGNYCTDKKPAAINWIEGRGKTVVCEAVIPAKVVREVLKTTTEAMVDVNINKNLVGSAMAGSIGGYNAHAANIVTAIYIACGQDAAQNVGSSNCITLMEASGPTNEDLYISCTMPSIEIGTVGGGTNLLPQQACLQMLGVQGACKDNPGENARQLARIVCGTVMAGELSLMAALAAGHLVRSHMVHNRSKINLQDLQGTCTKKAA
Protocol: Test A. In Vitro Microsomal Assay of HMG-CoA Reductase Inhibition:
This test is known and is carried out as described on pages 59-60 of application Ser. No. 06/741,903 (filed June 6, 1985) and on page 30 of World (PCT) Published Patent Application No. 84/02131 both of which are hereby incorporated by reference as if set forth herein in their entirety. The concentration of the test substance (compound of Formula I) in the assay system is 0.0005-2,000 μmolar. The obtained IC50 is the concentration of the test substance in the assay system observed or calculated to produce a 50% inhibition of HMG-CoA reductase activity.

Compound	ED50 [1]	IC50 (HMG-CoA reductase)
CCOC(=O)C[C@H](O)C[C@H](O)/C=C/c1c(C(C)C)c2ccccn2c1-c1ccc(F)cc1 (relative stereo) [Example 1, 7-[3-(4-fluorophenyl)-1-(1-methylethyl)-2-indolizinyl]-3,5,-dihydroxy-6-heptenoic acid, ethyl ester (trans)]	0.05 mg/kg	–
CC(C)c1c(/C=C/[C@@H](O)C[C@@H](O)CC(=O)O)c(-c2ccc(F)cc2)n2ccccc12 (relative stereo) [Example 2, 7-[3-(4-fluorophenyl)-1-(1-methylethyl)-2-indolizinyl]-3,5,-dihydroxy-6-heptenoic acid, sodium salt (trans)]	–	11 nM
CC[C@H](C)C(=O)O[C@H]1CCC=C2C=C[C@H](C)[C@H](CC[C@@H]3C[C@@H](O)CC(=O)O3)[C@H]21 [Compactin]	3.5 mg/kg	–
CC[C@H](C)C(=O)O[C@H]1C[C@@H](C)C=C2C=C[C@H](C)[C@H](CC[C@@H]3C[C@@H](O)CC(=O)O3)[C@H]21 [Mevinolin]	0.41 mg/kg	–
